Measurements published in PubChem BioAssay (NCI).
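Step 1: Grow cells in 96-well plates. Step 2: Expose to compound for 48 hours at 5 concentrations. Step 3: Interpolate endpoints linearly; if unreached, use highest concentration. TGI marks complete inhibition of growth.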

Assays:
Test in all cases: NCI anticancer screen, dose series, 48 h
DLD-1 colon = system: DLD-1 colon
SR leukemia = system: SR leukemia
SF-268 CNS = system: SF-268 CNS
UO-31 renal = system: UO-31 renal
TK-10 renal = system: TK-10 renal
KM20L2 colon = system: KM20L2 colon
786-0 renal = system: 786-0 renal
DMS 273 small cell lung = system: DMS 273 small cell lung
M14 melanoma = system: M14 melanoma
RPMI-8226 leukemia = system: RPMI-8226 leukemia
NCI-H522 lung = system: NCI-H522 lung
SF-539 CNS = system: SF-539 CNS
SF-295 CNS = system: SF-295 CNS
NCI-H460 lung = system: NCI-H460 lung
IGROV1 ovarian = system: IGROV1 ovarian
KM12 colon = system: KM12 colon
HCT-116 colon = system: HCT-116 colon
OVCAR-4 ovarian = system: OVCAR-4 ovarian
CAKI-1 renal = system: CAKI-1 renal
LOX IMVI melanoma = system: LOX IMVI melanoma
CCRF-CEM leukemia = system: CCRF-CEM leukemia
OVCAR-5 ovarian = system: OVCAR-5 ovarian
SNB-19 CNS = system: SNB-19 CNS
SK-OV-3 ovarian = system: SK-OV-3 ovarian
U251 CNS = system: U251 CNS
HT29 colon = system: HT29 colon
HL-60(TB) leukemia = system: HL-60(TB) leukemia
SNB-78 CNS = system: SNB-78 CNS
LXFL 529 NSCLC = system: LXFL 529 NSCLC
SW-620 colon = system: SW-620 colon
OVCAR-3 ovarian = system: OVCAR-3 ovarian
HCT-15 colon = system: HCT-15 colon
HOP-18 NSCLC = system: HOP-18 NSCLC
DMS 114 small cell lung = system: DMS 114 small cell lung
SK-MEL-28 melanoma = system: SK-MEL-28 melanoma
MALME-3M melanoma = system: MALME-3M melanoma
NCI-H23 lung = system: NCI-H23 lung
HOP-62 NSCLC = system: HOP-62 NSCLC
UACC-257 melanoma = system: UACC-257 melanoma
COLO 205 colon = system: COLO 205 colon
RXF 393 renal = system: RXF 393 renal
NCI-H226 lung = system: NCI-H226 lung
M19-MEL melanoma = system: M19-MEL melanoma
K-562 leukemia = system: K-562 leukemia
HCC-2998 colon = system: HCC-2998 colon
EKVX NSCLC = system: EKVX NSCLC
MOLT-4 leukemia = system: MOLT-4 leukemia
SK-MEL-2 melanoma = system: SK-MEL-2 melanoma
UACC-62 melanoma = system: UACC-62 melanoma
A549 NSCLC = system: A549 NSCLC
SN12C renal = system: SN12C renal
ACHN renal = system: ACHN renal
XF 498 CNS = system: XF 498 CNS
A498 renal = system: A498 renal
OVCAR-8 ovarian = system: OVCAR-8 ovarian
SNB-75 CNS = system: SNB-75 CNS

Measured: TGI

CC(C)(C)c1cc2c3c(c1)C(C(F)(F)F)(C(F)(F)F)O[Te]3(C)OC2(C(F)(F)F)C(F)(F)F
not listed: A498 renal | OVCAR-8 ovarian | SNB-75 CNS
> 100 µM: all other assays above

CNC(=O)N(C)COC
not listed: TK-10 renal | 786-0 renal | DMS 273 small cell lung | NCI-H23 lung | RXF 393 renal | K-562 leukemia
> 100 µM: all other assays above

CC(C)C(C)C(C)(C)P(C)(C)=O (stereo unspecified)
not listed: SR leukemia | 786-0 renal | DMS 273 small cell lung | RPMI-8226 leukemia | NCI-H522 lung | SF-295 CNS | IGROV1 ovarian | CAKI-1 renal | CCRF-CEM leukemia | HL-60(TB) leukemia | SW-620 colon | HOP-18 NSCLC | COLO 205 colon | K-562 leukemia | MOLT-4 leukemia | A549 NSCLC | A498 renal | OVCAR-8 ovarian
> 100 µM: all other assays above

Fc1ccccc1C1CC(c2ccc3ccccc3c2)=Nc2ccccc2S1 (stereo unspecified)
not listed: DLD-1 colon | RPMI-8226 leukemia | HCT-15 colon | DMS 114 small cell lung | K-562 leukemia | SNB-75 CNS
> 100 µM: all other assays above
